According to patent US20240299566A1, “POLY-ARGININE DERIVATIVES FOR ENHANCING BRAIN-DERIVED GROWTH FACTOR TO MITIGATE NEUROLOGICAL DISORDERS” (priority 2021, published 2024):
“Also recorded” adds a separate entry of the source.

Key:
[1] = test system: repeated corticosterone-injected mice; assay: Forced Swim Test in repeated corticosterone-injected mice; type: in vivo; settings: single i.v. injection 1 mg/kg, day 7 after injection
Description: FIG. 3A is a scatter plot showing immobility time of control mice or depressed mice during a Forced Swim Test, 7 days after injection of vehicle or Compounds of Formula (IV), where *P<0.001 vs. control mice.
(§1) Preclinical identification of fast-onset antidepressants requires animal models that can accurately predict the delay to therapeutic onset. […] This has led to the approval of SPRAVATO® (esketamine), a ketamine-derived drug which is the first antidepressant with a novel mechanism of action approved in decades. The neurobiological changes believed to underlie depressive symptomatology have been reliably characterized using exogenous corticosterone (CORT) administration e.g. dendritic atrophy in hippocampal pyramidal cells with loss of CA3 and CA1 apical dendrites. […] Mice then received a single injection of compounds of Formula (IV) (1 mg/kg) or Vehicle (0.9% NaCl). Day 7 after injection of compounds of Formula (IV), immobility times in the FST and TST were tested as described. #P<0.001 vs. control mice.

[2] = test system: Angelman syndrome (AS) mice; assay: Hippocampal LTP (field EPSP slopes, CA1) in Angelman syndrome mice after IP injection; type: in vivo; settings: for LTP (field EPSP slopes, CA1 region of hippocampus): IP, AS mice
Experimental: Field EPSP slopes were recorded in the CA1 region of the hippocampus.
Electrophysiological recordings and data analysis were performed as described in Cao et al., 2013 (Impairment of TrkB-PSD-95 Signaling in Angelman Syndrome. PLoS Biol 11, e1001478 (2013). Coronal brain slices (350 μm) were maintained in an interface chamber containing oxygenated artificial cerebral spinal fluid (ACSF) for at least 1 h before use. Slices were transferred to a submersion recording chamber perfused with oxygenated ACSF at 2 ml/min. Extracellular postsynaptic field potentials (fEPSPs) were performed by placing electrodes (borosilicate glass, resistance <1 MΩ) in the CA1 stratum radiatum and synaptic responses elicited by stimulation of the Schaffer Collaterals using concentric bipolar stimulation electrodes and recorded using an AxoClamp2B amplifier (Axon instruments) and EX1 differential amplifier (Dagan), and digitized at 10 kHz. Data were acquired using Igor Pro (Wave Metrics) and Neuromatic (neuromatic.thinkrandom.com). LTP was induced by high frequency stimulation (2×HFS for is at 100 Hz separated by 20 s) of Schaffer collateral afferents and LTP values are expressed as percentage of baseline±SEM. Paired two-tailed t-tests were used for statistical analysis.

[3] = test system: SH-SY5Y cells transfected with HA-TrkB; assay: BDNF-stimulated TrkB signaling, western blot with phospho-specific antibodies; type: cell-based; settings: 1 μM, FIG. 1D
Experimental: FIG. 1A depicts western blots probed with phospho-specific antibodies against p-MTOR, p-Erk and p-S6 from SHSY5Y cells transfected with TrkB and stimulated with 30 ng/ml BDNF. Blots depict expression before (0′), or 15 or 60 minutes (15′ and 60′) after BDNF stimulation.
SH-SY5Y cells were transfected with HA-TrkB. Following transfection, cells were starved in MEM for 3 hours. In the last 90 minutes of starvation, cells were treated with compounds of Formula (IV) or CN-2097 (shown below) at 1 μM and 5 μM. In the last hour of starvation, cells were stimulated with BDNF. Western blots probed with phospho-specific antibodies against p-MTOR, p-Erk and p-S6 (FIG. 1A).

IL-1β = assay: Inflammatory cytokine expression in CORT behavioral model of depression; type: in vivo, mice; settings: acute injection, FIG. 4A
Description: A major breakthrough in our understanding of the mechanistic basis for depression is the “inflammatory hypothesis”.

[4] = test system: repeated corticosterone-injected mice; assay: Tail Suspension Test in repeated corticosterone-injected mice; type: in vivo; settings: single i.v. injection 1 mg/kg, day 7 after injection
Description: FIG. 3B is a scatter plot showing immobility time of control mice or depressed mice during a Tail Suspension Test, 7 days after injection of vehicle or Compounds of Formula (IV), *P<0.001 vs. control mice.
as §1

microglia = assay: Microglia morphology in CORT mouse model of depression; type: in vivo, mice; settings: acute injection, FIG. 4C
Description: Microglial cells are capable of influencing complex moods, synaptic plasticity, neurogenesis, and memory. […] Classically activated, pro-inflammatory microglia phenotypes (termed M1-like), often release inflammatory mediators that result in severely injured tissue. Alternatively activated, anti-inflammatory microglial phenotypes (termed M2-like) are neuroprotective in function and promote the survival of new neurons. In a healthy brain, most microglial cells are in a resting state. The morphology of resting microglia is poly-branched with many fine branches and a smaller cytoplasm, compared to active microglia that display an increased soma size and more irregular shape of their cell body. Activation of microglia results in the release of pro-inflammatory factors, namely IL-1β, TNFα and IL-6.

ischemic episode = assay: Proposed treatment of patient with ischemia; type: in vivo, human; settings: 50 mg/Kg i.v. within 2 hours of onset; outcome within 48 hours
Experimental: A person presents with an ischemic episode resulting sudden numbness the face, and left arm, confusion, and trouble speaking. […] Doses of from about 1 to about 100 mg/Kg will be used.

## CC(C)C(NC(=O)C1CCC(=O)NCCC(=O)NCCCCC(NC(=O)C(CCC(N)=O)NC(=O)C(NC(=O)C(Cc2c[nH]c3ccccc23)NC(=O)C2CCCN2C(=O)C2CCCN2C(=O)C(Cc2ccccc2)NC(=O)C(CO)NC(=O)CNC(=O)C(N)CSSCC(N)C(=O)NC(CCCNC(=N)N)C(=O)NC(CCCNC(=N)N)C(=O)NC(CCCNC(=N)N)C(=O)NC(CCCNC(=N)N)C(=O)NC(CCCNC(=N)N)C(=O)NC(CCCNC(=N)N)C(=O)NC(CCCNC(=N)N)C(N)=O)C(C)C)C(=O)NC(C(C)O)C(=O)N1)C(=O)O (centres unmarked) [Formula (IV)]
[1]
  immobility time in Forced Swim Test: reduced the duration of immobility time
[2]; Angelman mouse model, FIG. 2A-2C
  restoration of hippocampal LTP, dose compared to CN2097: restored hippocampal LTP in an Angelman mouse model at a significantly lower dose as compared to CN2097
[2]; 0.5 mg/kg
  LTP (field EPSP slopes, CA1 region of hippocampus): resulted in LTP; also recorded: LTP was observed
[2]; 1 mg/kg
  LTP (field EPSP slopes, CA1 region of hippocampus): LTP was observed
[2]; 2 mg/kg
  LTP (field EPSP slopes, CA1 region of hippocampus): LTP was observed
[3]; BDNF stimulation
  p-S6 activity: enhanced p-S6 activity
[3]
  dose enhancing p-S6 activity, fold lower compared to CN2097: 5 fold
IL-1β
  IL-1β expression: blocks the increased expression of IL-1β
[4]
  immobility time in Tail Suspension Test: reduced the duration of immobility time
microglia
  microglia phenotype: switches microglia from an active form (CORT depression) to the resting phenotype
Ischemic episode
  patient outcome after ischemic episode: recovers without significant brain damage
